Consider four compounds from ChEMBL document CHEMBL5729403, “Small molecule modulators of the BTB domain of Keap1” (2022).

For orientation: EC50 means the concentration giving half of the maximal effect.

A short description of the test: HEK293 luciferase: Purpose of the AssayThe purpose of this assay is to identify small molecule inhibitors of Keap1, preventing Keap1 binding to Nrf2, and thus activating the Nrf2 signalling pathway in HEK-293 ARE firefly luciferase transiently transfected cells. HEK-293 cells express wild-type Keap1 protein and therefore have low constitutive levels of Nrf2 protein and Nrf2-dependent transcription. […] When Keap1 is inhibited, Nrf2 signalling is activated, and there is an increase in luciferase expression and light emission.Assay WorkflowCryopreserved HEK ARE luciferase cells were rapidly thawed in a 37° C. water bath and resuspended in assay culture medium (DMEM, 10% FCS, 2 mM L-glutamine). The cell suspension was pelleted by centrifugation ([…]; 300 g) using a Heraeus benchtop centrifuge. Supernatant was removed and the pellet was gently resuspended in 5 mL culture medium per vial. Cell viability and cell number was measured using an Invitrogen Countess automated cell counter (typical viability 80%), and cells were diluted to a density of 5.0×10^5 cells/mL.Cells were then plated out into white 384-well plates (Greiner 781080) using a Multidrop Combi, 20 μL/well, to give 10,000 cells/well. As appropriate, test compounds had been added to wells prior to dispensing cells using an Echo 555 acoustic dispenser (Labcyte). Plates were left at room temperature for ˜10 min to promote even cell settling across the plate before incubation for 18 h at 37° C., 95% humidity and 5% CO2.After 18 h incubation, plates were removed from the incubator and allowed to cool to room temperature for 30 min, before 10 μL per well SteadyGlo reagent detection reagent was added (as per manufacturer's instructions, 10 min before required 10 mL room temperature buffer was added to one vial of lyophilised substrate and inverted several times to fully dissolve). Plates were then incubated in the dark for 30 min before reading on an Envision plate reader.Preparation of Compounds for ScreeningCompounds were acoustically dispensed using a Labcyte Echo, using a 10 pt dose curve with a top concentration of 100 μM. Assay wells were backfilled with DMSO to a total of 60 nL to maintain 0.3% (v/v) DMSO through the assay.Data Analysis Software and Calculation of ResultsThe Stimulator signal was defined using 30 μM tert-butyl hydroquinone (tBHQ) and the Neutral signal by DMSO vehicle control. All calculations were performed using GeneData.
For the compound `COC1(c2cccc(-c3ccccc3)n2)C=C(C#N)C(=O)C(C)(C)C1` (centres undefined), the EC50 was 10000 nM. For `CCc1cccc(C2(OC)C=C(C#N)C(=O)C(C)(C)C2)n1` (centres undefined) the value was over 30000 nM; for `COC1(c2cccc(C)n2)C=C(C#N)C(=O)C(C)(C)C1` (centres undefined), 269 nM; for `COC1(c2ccc(C)cc2)C=C(C#N)C(=O)C(C)(C)C1` (centres undefined), 309 nM.
